COC(=O)c1c(Cl)nn(C)c1S(=O)(=O)NC(=O)Nc1nc(OC)cc(OC)n1
solubility (mole fraction)
Conditions | 278.15 K | 283.15 K | 288.15 K | 293.15 K | 298.15 K | 303.15 K | 308.15 K | 313.15 K | 318.15 K | 323.15 K
in DMF | 0.000768 | 0.000905 | 0.00105 | 0.00123 | 0.00142 | 0.0016 | 0.00182 | 0.00204 | 0.00227 | 0.00254
in ethanol | 3.56e-05 | 4.18e-05 | 4.87e-05 | 5.64e-05 | 6.48e-05 | 7.29e-05 | 8.22e-05 | 9.25e-05 | 0.000103 | 0.000116
in isopropanol | 3.3e-06 | 3.57e-06 | 3.85e-06 | 4.17e-06 | 4.51e-06 | 4.93e-06 | 5.33e-06 | 5.71e-06 | 6.19e-06 | 6.64e-06
in water | 3.24e-07 | 3.38e-07 | 3.51e-07 | 3.66e-07 | 3.81e-07 | 3.96e-07 | 4.11e-07 | 4.26e-07 | 4.44e-07 | 4.62e-07

From BigSolDB 2.1
